The text below walks through data of publication PMC11071266, “The putative proton-coupled organic cation antiporter is involved in uptake of triptans into human brain capillary endothelial cells” (Fluids and Barriers of the CNS, 2024).

In data set [1] the test system is H^+/OC antiporter. Description: Inhibition of [^3H]-pyrilamine uptake into hCMEC/D3 cells. The conditions noted are these: [^3H]-pyrilamine 1 µCi/mL, 48 nM, read-out: Apparent IC50 on [^3H]-pyrilamine uptake. It counts as cell-based, human. How it is done:
The immortalized human cerebral microvascular endothelial cell line (hCMEC/D3) was maintained in T75-flasks coated with collagen type I from calf skin (C9791, 18.7 μg/mL) and cultured in EBM®-2 medium (Lonza, Basel, Schweiz) supplemented with 5% (v/v) fetal bovine serum (FBS, 10270, Life Technologies, CA, USA or SH3008803, ThermoFisher Scientific, MA, USA), 100 U/mL penicillin and 100 μg/ml streptomycin, 1 ng/mL human basic fibroblast growth factor (bFGF), 1.4 μM hydrocortisone, 1% (v/v) chemically defined lipid concentrate (ThermoFisher Scientific, MA, USA), 10 mM N-2-hydroxyethylpiperazine-N-2-ethane sulfonic acid (HEPES) and 5 μg/mL ascorbic acid (5% CO2, 37 °C). […] For experiments, cells were seeded into 24-well plates (6.7·10^4 cells/cm^2) and cultured for four continuous days. The cells were used for experiments between passage 3–31.
The cells were equilibrated in hHBSS with or without inhibitor for 15 min (37 °C, 90 rpm). The compound of interest was spiked into the hHBSS followed by incubation for a designated time. The timeframe of the initial uptake rate was validated into hCMEC/D3 cells (Fig. 1 and Additional file 1). The experiment was terminated by washing three times with ice-cold HBSS supplemented with 0.0375% (v/v) sodium bicarbonate.
The inhibitory constant at 50% inhibition (IC50) was determined by fitting the uptake flux (Jss) as function of the logarithmic inhibitor concentration to Eq. 2.2 Jss=Jmin+(Jmax-Jmin)/1+10^logIC50-InH where [I] is the inhibitor concentration, nH is the Hill coefficient.
The hCMEC/D3 cells were used for [^3H]-pyrilamine inhibition studies between passage 3–6 (pyrilamine, oxycodone), 16–18 (almotriptan), 7–13 (eletriptan), 25–27 (frovatriptan), 3–8 (naratriptan), 16–18 (rizatriptan), 12–14 (sumatriptan), and 14–16 (zolmitriptan).
The cells were permeabilized using 0.1% (v/v) Triton X-100 in ultrapure water (ELGA, Buckinghamshire, England) for 10 min at room temperature. Thereafter, the cells were scraped off the bottom of the wells, transferred to scintillation vials, and mixed with 2 mL of Ultima Gold 241 TM (Perkin Elmer, MA, USA). The samples were analyzed using a Tri-Carb 2910 TR Liquid Scintillation Analyzer (Perkin Elmer, MA, USA).

In data set [2] the test system is organic cation transporter 1 (OCT1). Also noted: method as in PMID 35955563. Conditions: cited from earlier work.
The conditions of data set [3]: pH 7.4; extracted from ChemSpider; cited from earlier work.
The test system of data set [4] is H^+/OC antiporter. Also noted: method as in PMID 35955563. The conditions noted are these: trans-stimulation in hCMEC/D3 cells; cited from earlier work.
The next data set addresses P-gp (Homo sapiens, UniProt P08183). Also noted: expressed in transfected cells; host or cells: IPEC-J2 (porcine ileum epithelial cell line); method as in PMID 12438524. Conditions: MDR1-MDCKII cell line; cited from earlier work.
Data set [5] in a line: Physicochemical properties extracted from databases. From the text: Triptans are a relatively homogeneous group of drug compounds with similar physicochemical properties, including molecular weights < 400 g/mol and a low to moderate lipophilicity (cLogD values ranging from − 2.1–0.18). […] As a consequence, it is unlikely that triptans cross the brain microvascular endothelium through passive diffusion to a clinically relevant extent. Table 1 summarizes structures and physicochemical properties of the triptans, as well as oxycodone and pyrilamine, which are two prototypical H^+/OC antiporter substrates included in this study.

Sequence of P-gp (P08183 whole entry, the tested form may be a part): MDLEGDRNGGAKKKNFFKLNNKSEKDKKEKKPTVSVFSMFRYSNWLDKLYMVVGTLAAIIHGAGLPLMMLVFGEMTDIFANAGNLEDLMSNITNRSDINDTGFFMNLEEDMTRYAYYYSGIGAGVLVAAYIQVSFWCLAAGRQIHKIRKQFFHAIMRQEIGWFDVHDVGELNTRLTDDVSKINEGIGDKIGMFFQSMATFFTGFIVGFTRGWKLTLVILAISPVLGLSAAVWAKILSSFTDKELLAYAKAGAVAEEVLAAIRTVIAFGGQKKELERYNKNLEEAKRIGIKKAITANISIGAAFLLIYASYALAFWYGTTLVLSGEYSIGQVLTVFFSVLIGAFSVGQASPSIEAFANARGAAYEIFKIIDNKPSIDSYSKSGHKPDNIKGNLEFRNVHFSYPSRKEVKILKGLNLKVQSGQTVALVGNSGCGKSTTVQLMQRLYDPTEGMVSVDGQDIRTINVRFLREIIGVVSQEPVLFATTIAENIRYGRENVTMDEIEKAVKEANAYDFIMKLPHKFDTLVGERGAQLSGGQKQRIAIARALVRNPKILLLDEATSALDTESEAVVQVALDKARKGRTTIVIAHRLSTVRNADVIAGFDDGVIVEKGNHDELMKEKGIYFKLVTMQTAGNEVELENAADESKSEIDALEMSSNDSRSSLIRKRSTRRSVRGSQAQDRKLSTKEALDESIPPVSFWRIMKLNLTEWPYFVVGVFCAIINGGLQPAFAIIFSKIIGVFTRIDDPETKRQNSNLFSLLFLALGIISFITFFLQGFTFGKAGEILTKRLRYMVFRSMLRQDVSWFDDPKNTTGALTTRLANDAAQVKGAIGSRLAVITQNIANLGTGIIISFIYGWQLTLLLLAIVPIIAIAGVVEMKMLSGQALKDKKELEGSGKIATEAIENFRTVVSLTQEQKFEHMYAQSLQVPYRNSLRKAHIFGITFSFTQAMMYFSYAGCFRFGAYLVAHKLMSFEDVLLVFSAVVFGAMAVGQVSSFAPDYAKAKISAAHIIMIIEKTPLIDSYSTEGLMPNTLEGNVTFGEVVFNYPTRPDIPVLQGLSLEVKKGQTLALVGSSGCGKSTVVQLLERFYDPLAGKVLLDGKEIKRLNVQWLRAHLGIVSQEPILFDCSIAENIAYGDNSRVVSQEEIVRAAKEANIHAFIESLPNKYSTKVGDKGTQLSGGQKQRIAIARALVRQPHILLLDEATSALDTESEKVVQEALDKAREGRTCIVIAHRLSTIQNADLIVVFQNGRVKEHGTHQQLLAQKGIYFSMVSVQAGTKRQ

For `CN(C)CCc1c[nH]c2ccc(C[C@H]3COC(=O)N3)cc12` [Zolmitriptan], the IC50 in the data set on H^+/OC antiporter [1] was 1730 ± 1210 µM. In addition, the OCT1 substrate entry in data set [2] is on record as “substrates of OCT1”. Moreover, in data set [3], the “cLogD pH 7.4” value was 0.4. The “H^+/OC antiporter substrate” value in the data set on H^+/OC antiporter [4] is given as “did not appear to be H^+/OC antiporter substrate candidates”. In addition, the ER at P-gp is 2.48. Besides, the “Overall charge pH 7.4” value in data set [5] was “Positive”.

Usually IC50 stands for the point on the concentration scale where inhibition reaches its midpoint.
